A short description of data set [1]: Substrate solubility with different FASE (Example 8). The format is physicochemical. As to the method:
Different stock solutions of substrate are prepared in DMSO in the presence of Tween® 20, Tween® 80 (polyethoxylated sorbitan monooleate), Tween® 60 (polyethoxylated sorbitan monostearate) or Tween® 65 (polyethoxylated sorbitan tristearate). A volume corresponding to a final concentration of 500 mg/l of substrate is then added to a supercooled gelled medium, namely MacConkey medium.

A short description of data set [2]: Appearance of stock solutions of 2-alizarin octanoate in solvent/Tween 20 (Example 7). Type of data set: physicochemical. The settings on record: 60% Tween 20. As to the method:
The substrate tested is 1,2-dihydroxyanthraquinone octanoate (2-alizarin octanoate). Different stock solutions of substrate are prepared with DMF, DMSO, methanol or methoxyethanol as solvent and in the presence of Tween® 20 in all cases.

Like-named read-outs stand apart in the source and are kept apart here.

Regarding “polyethoxylated sorbitan monolaurate containing 20 units of ethylene oxide (EO) [TWEEN® 20]”, the substrate solubility entry in data set [1] (40% DMSO, 60% Tween) was “good substrate solubility”.
For the substance “1,2-dihydroxyanthraquinone octanoate [2-alizarin octanoate]”, the “Appearance of the stock solution” value in data set [2] (40% DMF) was “total”; in data set [2] (40% DMSO), “precipitate”; in data set [2] (40% methanol), “precipitate”; in data set [2] (40% methoxyethanol), “total”.
As for “polyethoxylated sorbitan monostearate (20 EO) [TWEEN® 60]”, the substrate solubility result in data set [1] is recorded as “good substrate solubility”.
As for “polyethoxylated sorbitan monooleate (20 EO) [TWEEN® 80]”, in data set [1], the substrate solubility result is on record as “good substrate solubility”.

Values taken from patent publication US20050014215A1, “Method and medium for the detecting/identifying microorganisms with esterase and/or r osidase and/or peptidase and/or sulfatase and/or phosphatase activity” (priority 2000, published 2005).
